Test results as given in patent US7642239B2, “Inhibition of placenta growth factor (PLGF) mediated metastasis and/or angiogenesis” (Center for Molecular Medicine and Immunology, priority 2005, dated 2010).
Ends that are not written are not given here.

Legend:
[1] = test system: MDA-MB-231 s.c. xenograft; test: Subcutaneous MDA-MB-231 xenograft growth and lung metastasis; type: in vivo, nude mice
Method: The tissue-culture-grown human breast tumor cell line, MDA-MB-231, was implanted subcutaneously (s.c.) on the flanks of nude mice. When tumors were visible, the mice were weighed and the tumors measured. Treatment with peptides was begun when tumors averaged about 0.06-0.12 cm^3 in volume. Mice were treated with 200-μg peptide in PBS by i.p. injection at 3-4-day intervals for 4 weeks. Animals were weighed and the tumors measured at each treatment. In a second experiment, the control peptide, CPA, was included. Three days after the final treatment, tumors and lungs were harvested. Tumor burden of the lungs (from experiment 1) was determined by counting colonies (<20 cells), clusters (>20-100 cells), and nodules (>100 cells) seen in all the lung tissue on a total of 4 slides or sections for each mouse. Data are presented as the average number of each size of metastasis for each treatment group (3-4 mice/group). The total number of each was summed for each treatment group, and divided by the total number of mice in that group. The percent inhibition for metastasis was determined by the formula: % inhibition=(# mock-treated−# treated/# mock-treated)×100.
To test for therapeutic activity of the peptide, BP1, mice were implanted with human breast cancer cells, MDA-MB-231, which produces lung metastases spontaneously when implanted as a subcutaneous tumor. When the tumors averaged 0.12 cm^3 in volume, either mock-treatment or therapy with BP1 was initiated at 200 μg, two times per week for 4 weeks. […] In a subsequent experiment, treatment was commenced when tumors were 0.07-0.08 cm^3. After 4 weeks of treatment, as described, the mean volume of the mock- and CPA-treated tumors was 0.25 and 0.33 cm^3, respectively, whereas BP1-treated tumors averaged 0.04 cm^3 (P<0.05 BP1 vs. mock- or CPA-treated tumors) (FIG. 3A).

VEGF165 = target: T1, VEGF165 (Homo sapiens, UniProt P15692); test: Free peptide binding ELISA (FLAG epitope probe), VEGF-coated wells
T1 construct: purchased R&D Systems
T1 sequence (P15692 27-191 isoform P15692-4): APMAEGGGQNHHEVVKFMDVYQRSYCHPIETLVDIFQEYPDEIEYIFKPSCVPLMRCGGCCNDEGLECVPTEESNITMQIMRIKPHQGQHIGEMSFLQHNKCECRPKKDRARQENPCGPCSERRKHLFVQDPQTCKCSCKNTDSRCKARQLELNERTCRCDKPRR
Method: Competition assays were done with 2.5 or 25 U/ml heparin (Sigma, St. Louis, Mo.). BP1, 3, 4, and a scrambled version of BP3 (scrBP3) were synthesized with a linker followed by the FLAG epitope ([…] SEQ ID NO:5) at the C-terminus. Thirty minutes after addition of the first reagent, the second reagent was added, followed by another 30 minute incubation. Peptide binding was assessed by probing for the FLAG epitope (Prickett et al., Biotechniques 7:580-9, 1989; Castrucci et al., J. Virol. 66:4647-53, 1992). Absorbance was read at 490 nm.

SHRYRLAIQLHASDSSSSCV [BP1]
reduction in tumor size compared to mock-treated controls ([1]; start at 0.12 cm^3, 200 μg two times per week for 4 weeks): 37%
mean tumor volume after 4 weeks of treatment ([1]; subsequent experiment, start at 0.07-0.08 cm^3, 200 μg i.p., mock 0.25): 0.04 cm^3
lung colonies (<20 cells) per mouse ([1]; total lung tissue/mouse, mock 36±6): 5±2
lung clusters (>20-100 cells) per mouse ([1]; total lung tissue/mouse, mock 76±19): 9±2
lung nodules (>100 cells) per mouse ([1]; total lung tissue/mouse, mock 78±25): 5±2
decrease in the number of metastatic lung nodules ([1]; vs mock-treated): 94%
binding to VEGF (in words) (VEGF165; ELISA-based binding assay): No measurable binding
binding to VEGF165 (A490) (VEGF165; peptide with C-terminal FLAG epitope): 0.299±0.174
